Data published in ChEMBL document CHEMBL3785026, “Pharmacokinetics of erythromycin in patients with severe cirrhosis. Respective influence of decreased serum binding and impaired liver metabolic capacity” (Br J Clin Pharmacol, 1987).

What was measured:
Homo sapiens [1] = test: Unbound renal drug clearance in healthy human subjects (6 subjects) at 500 mg, iv by Sarcina lutea based bioassay; type: ADME, organism-based, Kidney; settings: in vivo
Homo sapiens [2] = test: Unbound renal drug clearance in patient with severe cirrhosis (5 patients) at 500 mg, iv by Sarcina lutea based bioassay; type: ADME, organism-based, Kidney; settings: in vivo
[3] = Volume of distribution at steady state in patient with severe cirrhosis (5 patients) at 500 mg, iv by Sarcina lutea based bioassay; type: ADME, organism-based; settings: human, in vivo, read-out: Vdss
[4] = Unbound fraction in serum of patient with severe cirrhosis (5 patients) at 500 mg, iv by Sarcina lutea based bioassay; type: ADME, organism-based; settings: human
[5] = Unbound fraction in serum of healthy human subjects (6 subjects) at 500 mg, iv by Sarcina lutea based bioassay; type: ADME, organism-based
[6] = Volume of distribution at steady state in healthy human subjects (6 subjects) at 500 mg, iv by Sarcina lutea based bioassay; type: ADME, organism-based; settings: in vivo, read-out: Vdss
[7] = Total drug clearance in patient with severe cirrhosis (5 patients) at 500 mg, iv by Sarcina lutea based bioassay; type: ADME, organism-based; settings: human, in vivo
[8] = Total drug clearance in healthy human subjects (6 subjects) at 500 mg, iv by Sarcina lutea based bioassay; type: ADME, organism-based; settings: in vivo
Homo sapiens [9] = test: Unbound drug clearance in patient with severe cirrhosis (5 patients) at 500 mg, iv by Sarcina lutea based bioassay; type: ADME, organism-based; settings: in vivo
Homo sapiens [10] = test: Unbound drug clearance in healthy human subjects (6 subjects) at 500 mg, iv by Sarcina lutea based bioassay; type: ADME, organism-based; settings: in vivo
Homo sapiens [11] = test: Unbound non-renal drug clearance in patient with severe cirrhosis (5 patients) at 500 mg, iv by Sarcina lutea based bioassay; type: ADME, organism-based; settings: in vivo
Homo sapiens [12] = test: Unbound non-renal drug clearance in healthy human subjects (6 subjects) at 500 mg, iv by Sarcina lutea based bioassay; type: ADME, organism-based; settings: in vivo
[13] = Terminal half life in patient with severe cirrhosis (5 patients) at 500 mg, iv by Sarcina lutea based bioassay; type: ADME, organism-based; settings: human, in vivo, read-out: beta t1/2 (converted)
[14] = Terminal half life in healthy human subjects (6 subjects) at 500 mg, iv by Sarcina lutea based bioassay; type: ADME, organism-based; settings: in vivo, read-out: beta t1/2 (converted)

CL free (Homo sapiens [1]): 14.5 L/h | CL free (Homo sapiens [2]): 11.2 L/h | Vd [3]: 85.5 L | fraction unbound [4]: 0.583 | fraction unbound [5]: 0.305 | Vd [6]: 57.6 L | clearance [7]: 403 mL/min | clearance [8]: 570 mL/min | CL free (Homo sapiens [9]): 42.2 L/h | CL free (Homo sapiens [10]): 113.2 L/h | CL free (Homo sapiens [11]): 31.6 L/h | CL free (Homo sapiens [12]): 98.6 L/h | half-life [13]: 2.24 h | half-life [14]: 1.36 h
Compound: CC[C@H]1OC(=O)[C@H](C)[C@@H](O[C@H]2C[C@@](C)(OC)[C@@H](O)[C@H](C)O2)[C@H](C)[C@@H](O[C@@H]2O[C@H](C)C[C@H](N(C)C)[C@H]2O)[C@](C)(O)C[C@@H](C)C(=O)[C@H](C)[C@@H](O)[C@]1(C)O.O=C(O)[C@H](O)[C@@H](O)[C@H](O[C@@H]1O[C@H](CO)[C@@H](O)[C@@H](O)[C@H]1O)[C@H](O)CO
